Laboratory results: patent US8927500B2, “Peptidomimetic macrocycles” (Aileron Therapeutics, Inc., priority 2012, dated 2015)
Where a SMILES comes first, the peptide text is derived from it. Bridges are numbered along the chain shown (N, C = ends). [ ]: non-standard residue; d: D form. R8 = C=CCCCCCC[C@@](C)(N)C(=O)O; Cit = NC(=O)NCCC[C@H](N)C(=O)O; S5 = C=CCCC[C@](C)(N)C(=O)O; Aib = CC(C)(N)C(=O)O

Key:
MDM2 = MDM2 (Homo sapiens, UniProt Q00987); test: Competitive fluorescence polarization assay for MDM2; assay type: binding; conditions: competitive FP assay, MDM2; read-out: Ki (MDM2)
Sequence of MDM2 (Q00987 1-125): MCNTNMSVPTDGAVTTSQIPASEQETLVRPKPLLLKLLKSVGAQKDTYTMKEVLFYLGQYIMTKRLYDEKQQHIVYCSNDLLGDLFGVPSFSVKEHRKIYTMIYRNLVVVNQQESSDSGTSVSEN

MDMX = target: T1, MDMX (Homo sapiens, UniProt O15151); test: Competitive fluorescence polarization assay for MDMX; assay type: binding; conditions: competitive FP assay, read-out: Ki (MDMX)
T1 sequence (O15151 1-125): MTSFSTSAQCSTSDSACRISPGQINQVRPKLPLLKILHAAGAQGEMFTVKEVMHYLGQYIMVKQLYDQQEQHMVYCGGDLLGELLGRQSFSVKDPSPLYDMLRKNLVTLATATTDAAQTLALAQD

| SMILES | Ki (MDM2) | Ki (MDMX) |
| --- | --- | --- |
| CC(=O)N[C@@H](CC(C)C)C(=O)N[C@H](C(=O)N[C@@H](Cc1ccccc1)C(=O)N[C@]1(C)CCCCCCC=CCCC[C@@](C)(C(=O)N[C@@H](C)C(=O)N[C@@H](C)C(=O)N[C@@H](C)C(=O)N[C@@H](C)C(=O)N[C@@H](C)C(=O)N[C@H](C)C(N)=O)NC(=O)[C@H](CC(C)C)NC(=O)[C@H](CC(C)C)NC(=O)[C@H](C)NC(=O)[C@H](Cc2c[nH]c3ccccc23)NC(=O)[C@H](Cc2ccc(O)cc2)NC(=O)[C@H](CCC(=O)O)NC1=O)[C@@H](C)O [compound 608] (Ac-LTF[R8]EYWALL[S5]AAAAA[dA]-NH2; staple 4-11) | < 10 nM | 10 to 100 nM |
| CC(=O)N[C@@H](CC(C)C)C(=O)N[C@H](C(=O)N[C@@H](Cc1ccccc1)C(=O)N[C@]1(C)CCCCCCC=CCCC[C@@](C)(C(=O)N[C@@H](C)C(=O)N[C@@H](C)C(=O)N[C@@H](C)C(=O)N[C@@H](C)C(=O)N[C@@H](C)C(=O)N[C@H](C)C(N)=O)NC(=O)[C@H](CC(C)C)NC(=O)C(C)(C)NC(=O)[C@H](C)NC(=O)[C@H](Cc2c[nH]c3ccccc23)NC(=O)[C@H](Cc2ccc(O)cc2)NC(=O)[C@H](CCC(=O)O)NC1=O)[C@@H](C)O [compound 609] (Ac-LTF[R8]EYWA[Aib]L[S5]AAAAA[dA]-NH2; staple 4-11) | < 10 nM | 10 to 100 nM |
| CC(=O)N[C@@H](CC(C)C)C(=O)N[C@H](C(=O)N[C@@H](Cc1ccccc1)C(=O)N[C@]1(C)CCCCCCC=CCCC[C@@](C)(C(=O)N[C@@H](C)C(=O)N[C@@H](C)C(=O)N[C@@H](C)C(=O)N[C@@H](C)C(=O)N[C@@H](C)C(=O)N[C@H](C)C(N)=O)NC(=O)[C@H](CC(C)C)NC(=O)[C@H](CO)NC(=O)[C@H](C)NC(=O)[C@H](Cc2c[nH]c3ccccc23)NC(=O)[C@H](Cc2ccc(O)cc2)NC(=O)[C@H](CCC(=O)O)NC1=O)[C@@H](C)O [compound 610] (Ac-LTF[R8]EYWASL[S5]AAAAA[dA]-NH2; staple 4-11) | < 10 nM | 10 to 100 nM |
| CC(=O)N[C@@H](CC(C)C)C(=O)N[C@H](C(=O)N[C@@H](Cc1ccccc1)C(=O)N[C@]1(C)CCCCCCC=CCCC[C@@](C)(C(=O)N[C@@H](C)C(=O)N[C@@H](C)C(=O)N[C@@H](C)C(=O)N[C@@H](C)C(=O)N[C@@H](C)C(=O)N[C@H](C)C(N)=O)NC(=O)[C@H](CC(C)C)NC(=O)[C@H](CC(N)=O)NC(=O)[C@H](C)NC(=O)[C@H](Cc2c[nH]c3ccccc23)NC(=O)[C@H](Cc2ccc(O)cc2)NC(=O)[C@H](CCC(=O)O)NC1=O)[C@@H](C)O [compound 611] (Ac-LTF[R8]EYWANL[S5]AAAAA[dA]-NH2; staple 4-11) | < 10 nM | 10 to 100 nM |
| CC(=O)N[C@@H](CC(C)C)C(=O)N[C@H](C(=O)N[C@@H](Cc1ccccc1)C(=O)N[C@]1(C)CCCCCCC=CCCC[C@@](C)(C(=O)N[C@@H](C)C(=O)N[C@@H](C)C(=O)N[C@@H](C)C(=O)N[C@@H](C)C(=O)N[C@@H](C)C(=O)N[C@H](C)C(N)=O)NC(=O)[C@H](CC(C)C)NC(=O)[C@H](CCCNC(N)=O)NC(=O)[C@H](C)NC(=O)[C@H](Cc2c[nH]c3ccccc23)NC(=O)[C@H](Cc2ccc(O)cc2)NC(=O)[C@H](CCC(=O)O)NC1=O)[C@@H](C)O [compound 612] (Ac-LTF[R8]EYWA[Cit]L[S5]AAAAA[dA]-NH2; staple 4-11) | < 10 nM | 10 to 100 nM |
| CC(=O)N[C@@H](CC(C)C)C(=O)N[C@H](C(=O)N[C@@H](Cc1ccccc1)C(=O)N[C@]1(C)CCCCCCC=CCCC[C@@](C)(C(=O)N[C@@H](C)C(=O)N[C@@H](C)C(=O)N[C@@H](C)C(=O)N[C@@H](C)C(=O)N[C@@H](C)C(=O)N[C@H](C)C(N)=O)NC(=O)[C@H](CC(C)C)NC(=O)[C@H](Cc2c[nH]cn2)NC(=O)[C@H](C)NC(=O)[C@H](Cc2c[nH]c3ccccc23)NC(=O)[C@H](Cc2ccc(O)cc2)NC(=O)[C@H](CCC(=O)O)NC1=O)[C@@H](C)O [compound 613] (Ac-LTF[R8]EYWAHL[S5]AAAAA[dA]-NH2; staple 4-11) | < 10 nM | 10 to 100 nM |
